One compound from patent EP4548971A1, “1,4-BENZOTHIAZEPINES AND RELATED COMPOUNDS WITH CYCLOPROPANOL GROUPS AS MULTI-TARGETED DRUGS” (Georg-August-Universität Göttingen Stiftung Öffentlichen …, priority 2023, dated 2025) can be followed below.

Structures are written as SMILES.

Common to all, as to format: cell-based
The test system of experiment [1] is saponin-permeabilized ventricular cardiomyocytes (sp-vCM) from RyR2R2474S/+ mice. Kind of experiment: Ca2+ wave decay in saponin-permeabilized ventricular cardiomyocytes, RyR2R2474S/+ mice. The following applies: 10 µM, result in words. From the text: (§1) • Figure 1: Synthesis scheme showing the synthesis of multifunctional compounds with cyclopropanol residues based on 1,4 -benzothiazepines. The respective reaction conditions (a) to (i) are as follows: (a) Jones reagent, aceton; (b) H2SO4, EtOH; (c) EtMgBr, Ti(OiPr)4, EtzO; (d) t-BuMe2SiOSO2CF3, 2,6-lutidine, DCM; (e) Hz, Pd/C, THF; (f) Dess-Martin reagent, DCM; (g) K2CO3, 1,4-dioxane; (h) N2H4*H2O, EtOH; (i) Na(CH3COO)3BH, 1,2-dichloroethane; (j) NaH, DMF; (k) aq. HF (55%), MeCN or 1 M n-Bu4NF in THF or KF, Et3N*HCl, MeOH. m,n = 2-8. • Figure 2: Synthesis scheme showing the synthesis of multifunctional compounds with cyclopropanol residues based on the "open" analogs 1,4 -benzothiazepines (i.e. 3-[(4-methoxyphenyl)oxy]-and 3-[(4-methoxyphenylthio)]propane-1-amine derivatives). […] Values represent the mean ± S.D., *** P < 0.0005, **** P < 0.0001 vs. DMSO by unpaired t test; n = 6 - 28. • Figure 6: Time-lapse fluorescence measurements using TECAN Spark 20M plate reader with HEK293 cells expressing WT RyR2 and R-CEPIA1er indicator. […] Fluorescence ratio F/F0, where F0 - average fluorescence signal for the first 90 seconds, F- average fluorescence signal for the last 100 s, was taken for the calculations. […] Data sets were analyzed by unpaired Student's t-test. n.s. non-significant with P=0.59 for Dan, **, P<0.01 with P=0.003 for S36, and *, P<0.05 with P=0.019 for GM1869; (D, E, F) Relative changes in the decay time tau of Ca2+ transients from spontaneous Ca2+ waves (in control/drug) by Dan (D, 10µM), S36 (E, 10 µM), and GM1869 (F, 10 µM) in cardiomyocytes from WT and RyR2R2474S/+ mice. […] Rise times represent the tau values calculated by a mono-exponential fit of the Ca2+ transients from start to the peak of the signal. Ca2+ transients were recorded in control conditions and every 2 min (S36) or 4 min (GM1869) after drug application. **, P = 0.0065 for S36; ****, P = 0.000019 for GM1869, evaluated by paired Student's t-test. […] Decay times represent the tau values calculated by a mono-exponential fit of the Ca2+ transients from half maximum to baseline of the signal. […]

Experiment [2] deals with saponin-permeabilized ventricular cardiomyocytes (sp-vCM) from WT mice. The experiment in a line: Ca2+ wave decay in saponin-permeabilized ventricular cardiomyocytes, WT mice. Conditions: 10 µM, result in words.
From the text: as §1

The next experiment deals with T1, WT RyR2 (Mus musculus, UniProt E9Q401).
T1 construct: expressed in transfected cells
T1 sequence (E9Q401 whole entry): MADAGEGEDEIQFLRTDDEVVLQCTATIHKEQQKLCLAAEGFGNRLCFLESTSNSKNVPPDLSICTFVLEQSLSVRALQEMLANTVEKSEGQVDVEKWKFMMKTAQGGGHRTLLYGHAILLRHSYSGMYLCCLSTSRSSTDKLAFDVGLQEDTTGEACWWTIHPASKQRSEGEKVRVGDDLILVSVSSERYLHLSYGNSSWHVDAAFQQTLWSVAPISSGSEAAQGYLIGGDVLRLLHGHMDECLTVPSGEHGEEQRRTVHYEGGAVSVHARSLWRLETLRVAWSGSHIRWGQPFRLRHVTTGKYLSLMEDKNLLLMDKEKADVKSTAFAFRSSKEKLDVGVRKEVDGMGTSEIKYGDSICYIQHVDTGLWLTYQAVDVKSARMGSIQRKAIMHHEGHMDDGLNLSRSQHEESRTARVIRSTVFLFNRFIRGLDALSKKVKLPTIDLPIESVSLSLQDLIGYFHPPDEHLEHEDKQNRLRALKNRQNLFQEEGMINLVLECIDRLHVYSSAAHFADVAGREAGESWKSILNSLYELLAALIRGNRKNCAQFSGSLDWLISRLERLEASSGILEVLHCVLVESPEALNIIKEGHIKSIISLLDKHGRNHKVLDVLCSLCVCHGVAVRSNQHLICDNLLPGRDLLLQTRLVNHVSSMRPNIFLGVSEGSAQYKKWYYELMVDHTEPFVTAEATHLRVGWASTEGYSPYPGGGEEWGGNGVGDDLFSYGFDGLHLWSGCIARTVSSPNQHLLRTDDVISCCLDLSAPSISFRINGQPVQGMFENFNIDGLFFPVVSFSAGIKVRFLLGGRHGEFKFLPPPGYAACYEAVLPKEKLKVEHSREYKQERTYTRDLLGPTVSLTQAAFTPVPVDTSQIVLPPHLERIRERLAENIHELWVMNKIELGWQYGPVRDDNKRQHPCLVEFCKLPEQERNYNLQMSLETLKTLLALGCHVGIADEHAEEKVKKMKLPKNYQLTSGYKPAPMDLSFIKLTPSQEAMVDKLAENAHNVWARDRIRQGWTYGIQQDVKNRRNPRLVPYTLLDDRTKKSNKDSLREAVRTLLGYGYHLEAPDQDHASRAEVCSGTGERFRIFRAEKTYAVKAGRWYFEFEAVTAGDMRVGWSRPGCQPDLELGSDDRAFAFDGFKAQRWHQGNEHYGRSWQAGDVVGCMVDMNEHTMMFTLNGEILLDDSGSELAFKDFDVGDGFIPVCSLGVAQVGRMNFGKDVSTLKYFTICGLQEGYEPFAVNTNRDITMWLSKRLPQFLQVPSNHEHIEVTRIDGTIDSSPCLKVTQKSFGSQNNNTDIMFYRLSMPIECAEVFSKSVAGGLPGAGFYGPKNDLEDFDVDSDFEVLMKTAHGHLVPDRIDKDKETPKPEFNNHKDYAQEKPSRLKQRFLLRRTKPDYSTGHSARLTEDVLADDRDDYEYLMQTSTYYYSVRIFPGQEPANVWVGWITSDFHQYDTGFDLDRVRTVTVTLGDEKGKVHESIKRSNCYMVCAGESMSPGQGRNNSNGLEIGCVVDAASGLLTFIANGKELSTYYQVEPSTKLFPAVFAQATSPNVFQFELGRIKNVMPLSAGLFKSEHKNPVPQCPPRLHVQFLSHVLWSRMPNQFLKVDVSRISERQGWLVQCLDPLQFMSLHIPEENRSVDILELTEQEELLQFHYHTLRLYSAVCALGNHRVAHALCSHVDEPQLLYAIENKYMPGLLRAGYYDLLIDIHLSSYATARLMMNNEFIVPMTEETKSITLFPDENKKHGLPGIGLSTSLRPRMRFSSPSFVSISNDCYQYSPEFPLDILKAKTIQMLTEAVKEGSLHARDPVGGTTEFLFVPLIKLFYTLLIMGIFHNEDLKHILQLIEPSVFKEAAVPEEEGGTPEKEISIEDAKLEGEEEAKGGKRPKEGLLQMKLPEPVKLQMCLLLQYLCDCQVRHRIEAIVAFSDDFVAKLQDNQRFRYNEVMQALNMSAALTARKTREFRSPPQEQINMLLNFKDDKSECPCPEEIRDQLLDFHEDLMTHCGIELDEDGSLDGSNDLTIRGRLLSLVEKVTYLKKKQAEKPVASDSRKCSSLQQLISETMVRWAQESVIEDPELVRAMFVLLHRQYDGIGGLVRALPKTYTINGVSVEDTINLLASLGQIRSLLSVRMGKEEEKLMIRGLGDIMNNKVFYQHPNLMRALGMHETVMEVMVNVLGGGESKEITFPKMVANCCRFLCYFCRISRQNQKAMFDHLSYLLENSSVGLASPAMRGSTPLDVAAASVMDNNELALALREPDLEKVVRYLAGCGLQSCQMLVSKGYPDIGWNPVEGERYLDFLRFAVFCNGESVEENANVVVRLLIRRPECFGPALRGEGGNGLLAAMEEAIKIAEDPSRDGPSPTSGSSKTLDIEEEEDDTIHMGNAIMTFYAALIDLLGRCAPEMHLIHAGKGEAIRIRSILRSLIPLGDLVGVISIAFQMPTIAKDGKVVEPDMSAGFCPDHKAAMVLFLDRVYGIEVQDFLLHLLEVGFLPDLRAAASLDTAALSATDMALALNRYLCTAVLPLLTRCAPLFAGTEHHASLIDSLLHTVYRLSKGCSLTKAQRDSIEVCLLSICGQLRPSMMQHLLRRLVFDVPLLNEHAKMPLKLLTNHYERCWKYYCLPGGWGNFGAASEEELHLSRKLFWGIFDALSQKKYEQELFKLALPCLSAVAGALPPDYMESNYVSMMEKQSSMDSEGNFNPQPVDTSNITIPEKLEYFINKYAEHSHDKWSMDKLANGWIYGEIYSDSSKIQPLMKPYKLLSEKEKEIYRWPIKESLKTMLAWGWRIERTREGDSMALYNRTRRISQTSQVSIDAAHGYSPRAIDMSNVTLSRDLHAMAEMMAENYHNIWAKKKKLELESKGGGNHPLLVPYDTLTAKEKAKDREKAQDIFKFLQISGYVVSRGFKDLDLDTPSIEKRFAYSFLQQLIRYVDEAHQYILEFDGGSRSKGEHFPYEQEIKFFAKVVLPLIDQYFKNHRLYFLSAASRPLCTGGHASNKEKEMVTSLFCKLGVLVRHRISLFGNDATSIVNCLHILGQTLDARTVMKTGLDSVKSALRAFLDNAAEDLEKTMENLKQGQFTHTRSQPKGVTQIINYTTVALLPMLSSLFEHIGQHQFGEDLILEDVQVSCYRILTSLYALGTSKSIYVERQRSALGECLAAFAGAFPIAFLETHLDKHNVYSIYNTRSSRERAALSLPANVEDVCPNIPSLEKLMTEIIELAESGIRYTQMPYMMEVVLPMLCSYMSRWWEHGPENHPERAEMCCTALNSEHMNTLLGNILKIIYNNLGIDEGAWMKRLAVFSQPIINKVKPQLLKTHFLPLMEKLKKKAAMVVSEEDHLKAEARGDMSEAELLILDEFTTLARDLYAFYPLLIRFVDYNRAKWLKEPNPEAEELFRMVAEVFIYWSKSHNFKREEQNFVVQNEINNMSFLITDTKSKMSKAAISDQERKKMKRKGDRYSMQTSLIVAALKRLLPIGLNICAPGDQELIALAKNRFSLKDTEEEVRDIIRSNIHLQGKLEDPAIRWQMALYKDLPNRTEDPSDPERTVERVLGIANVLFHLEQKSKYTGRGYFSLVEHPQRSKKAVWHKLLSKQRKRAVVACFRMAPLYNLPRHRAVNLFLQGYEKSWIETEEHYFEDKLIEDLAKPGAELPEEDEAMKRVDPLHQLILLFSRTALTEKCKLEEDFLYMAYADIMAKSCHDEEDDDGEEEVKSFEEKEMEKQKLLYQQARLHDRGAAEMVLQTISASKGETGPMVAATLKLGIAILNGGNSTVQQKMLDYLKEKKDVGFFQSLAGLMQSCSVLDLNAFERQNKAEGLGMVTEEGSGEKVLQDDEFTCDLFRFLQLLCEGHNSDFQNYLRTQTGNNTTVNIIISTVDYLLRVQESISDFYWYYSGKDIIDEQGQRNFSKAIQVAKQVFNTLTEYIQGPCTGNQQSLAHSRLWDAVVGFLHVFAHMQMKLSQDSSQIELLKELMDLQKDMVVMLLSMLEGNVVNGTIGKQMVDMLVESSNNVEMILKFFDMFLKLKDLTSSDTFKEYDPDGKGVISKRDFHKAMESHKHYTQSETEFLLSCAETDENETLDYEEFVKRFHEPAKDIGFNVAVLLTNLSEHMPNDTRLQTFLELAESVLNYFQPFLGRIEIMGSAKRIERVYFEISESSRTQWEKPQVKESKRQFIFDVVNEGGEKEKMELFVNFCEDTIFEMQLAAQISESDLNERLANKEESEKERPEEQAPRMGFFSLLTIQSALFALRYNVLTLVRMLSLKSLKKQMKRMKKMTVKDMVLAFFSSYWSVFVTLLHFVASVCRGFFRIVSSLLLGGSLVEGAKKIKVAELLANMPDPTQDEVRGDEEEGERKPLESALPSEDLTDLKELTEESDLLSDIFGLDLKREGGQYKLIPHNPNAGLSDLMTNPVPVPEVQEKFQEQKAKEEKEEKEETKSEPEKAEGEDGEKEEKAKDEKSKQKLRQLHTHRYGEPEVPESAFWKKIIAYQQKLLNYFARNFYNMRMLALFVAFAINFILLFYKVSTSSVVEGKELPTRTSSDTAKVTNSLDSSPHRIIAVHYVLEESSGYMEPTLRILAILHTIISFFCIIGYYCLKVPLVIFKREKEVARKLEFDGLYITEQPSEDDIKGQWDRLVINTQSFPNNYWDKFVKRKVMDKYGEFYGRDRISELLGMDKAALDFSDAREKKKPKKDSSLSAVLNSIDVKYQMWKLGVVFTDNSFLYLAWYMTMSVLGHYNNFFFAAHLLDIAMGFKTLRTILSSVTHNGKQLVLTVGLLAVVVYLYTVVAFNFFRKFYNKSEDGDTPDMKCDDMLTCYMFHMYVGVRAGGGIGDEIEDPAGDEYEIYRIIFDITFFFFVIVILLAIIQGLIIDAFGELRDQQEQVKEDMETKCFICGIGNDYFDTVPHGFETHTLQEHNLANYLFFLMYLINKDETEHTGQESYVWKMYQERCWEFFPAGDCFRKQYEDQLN
The experiment in a line: Time-lapse [Ca2+]ER assay (RyR2 R-CEPIA1er assay) in HEK-293 cells. Conditions: 25 µM, vs. 0.1 v/v% DMSO. As for the experimental part:
HEK-293 cells stably expressing R-CEPIA1er and WT RyR2 (generous gift from Takashi Murayama, Juntendo University School of Medicine, Tokyo) were cultured in Dulbecco's Modified Eagle medium (DMEM, Thermo Fisher Scientific, Darmstadt, Germany) supplemented with 10% fetal bovine serum (FBS, Thermo Fisher Scientific, Darmstadt, Germany), 0.9% Penicillin/Streptomycin (Merck KGaA, Darmstadt, Germany), 15ug/mL Blasticidine (Invivogen, Toulouse, France), 100 µg/mL Hygromycin (Merck KGaA, Darmstadt, Germany) and 400 µg/mL G418 (Thermo Fisher Scientific, Darmstadt, Germany) in a humidified 5% COz incubator at 37 °C. To induce the expression of WT RyR2 in the endoplasmic reticulum (ER), 2 µg/mL Doxycycline (Merck KGaA, Darmstadt, Germany) was added 24 h before experiments.
The fluorescent plate reader [Ca^2+]ER assay was performed according to the slightly modified protocol of Murayama & Kurebayashi [T. Murayama, N. Kurebayashi, Assays for Modulators of Ryanodine Receptor (RyR)/Ca(2+) Release Channel Activity for Drug Discovery for Skeletal Muscle and Heart Diseases. Curr. Protoc. […] After the cells were inducted with Doxycycline for 24 h, changes in ER calcium concentrations [Ca^2+]ER were measured on a multiwell plate reader TECAN Spark 20M at 37 °C. The 1000 × stock solutions of the test compounds were prepared in DMSO. Briefly, the culture medium was removed and 100 µl of Tyrode's solution containing 2 mM CaCl2 was added to the cells. The time courses were recorded in each well. Fluorescence was evoked by 560 nm excitation wavelength and collected in a bottom-read mode at 610 nm. Data was recorded every 10 s, exposure - 20 flashes, excitation bandwidth - 20 nm, emission bandwidth - 20 nm. 100 µl of 0 - 100 µM solution of test compound in Tyrode's solution containing 2 mM CaCh was injected in each well (speed 100 µl/s) at the 90 s time point. […] The 0.1 v/v% DMSO and 2 mM CaCh Tyrode's solution was used as a control.
The dose response curves were calculated using the software package GraphPad Prism version 8.3.1. (GraphPad Software, Inc.). All data are presented as mean ± S.D. in 3 independent experiments. Y=Bottom + (Top-Bottom)/(1+10^((LogEC50-X)*HillSlope)) was used where HillSlope describes the steepness of the curve, Top and Bottom are plateaus in the units of the Y axis.
The inventors measured changes in Ca^2+ levels in the endoplasmic reticulum (ER) of HEK-293 cells with inducible expression of wild-type RyR2 (WT RyR2) [T. Murayama, N. Kurebayashi, M. Ishigami-Yuasa, S. Mori, Y. Suzuki, R. Akima, H. Ogawa, J. Suzuki, K. Kanemaru, H. Oyamada, Y. Kiuchi, M. Iino, H. Kagechika, T. Sakurai, Efficient High-Throughput Screening by Endoplasmic Reticulum Ca(2+) Measurement to Identify Inhibitors of Ryanodine Receptor Ca(2+)-Release Channels. […] The cells additionally stably express the Ca^2+ fluorescence indicator R-CEPIA1er, which is a genetically encoded sensor protein of Ca^2+ in the ER ([Ca^2+]ER) [T. Murayama, N. Kurebayashi, Assays for Modulators of Ryanodine Receptor (RyR)/Ca(2+) Release Channel Activity for Drug Discovery for Skeletal Muscle and Heart Diseases. Curr. Protoc.
The fluorescence ratio F/F0 was calculated, where F0 - is the average fluorescence for the first 90 s, F - is the average fluorescence for the last 100 s, and normalized.

Regarding `O=C1CN(/N=C/c2ccc(-c3ccc([N+](=O)[O-])cc3)o2)C(O)=N1` [dantrolene], the “Relative changes in the decay time tau of Ca2+ transients from spontaneous Ca2+ waves (in control/drug)” value in experiment [1] and in experiment [2] was “significantly above 1” each time. Moreover, the “effect on [Ca^2+]ER (R-CEPIA1er fluorescence), in words” value on WT RyR2 is recorded as “increase in R-CEPIA1er fluorescence”.
